Key:
[1] = system: Rattus norvegicus; assay: Effect on NDUFS4 gene expression in epididymal white adipose tissue of Zucker rat sub-chronic fa/fa prediabetic model at 10 mg/kg, po qd for 15 days by microarray analysis relative to control; format: functional
[2] = system: Rattus norvegicus; assay: Toxicity in Zucker rat sub-chronic fa/fa prediabetic model assessed as serum BUN level at 50 mg/kg, po qd for 31 days measured on day 32 (reference value: 28.3 +/- […]); format: organism-based; conditions: in vivo, 744 h
[3] = system: Rattus norvegicus; assay: Toxicity in Zucker rat sub-chronic fa/fa prediabetic model assessed as serum AST level at 3 mg/kg, po qd for 31 days measured on day 32 (reference value: 187 +/- 37 U/L); format: organism-based; conditions: in vivo, 744 h
[4] = system: Rattus norvegicus; assay: Toxicity in […] chronic ob/ob model assessed as food intake at 50 mg/kg, po qd for 28 days measured on day 1 to 28 during compound dosing (reference value: 170.6 +/- 3 g); format: organism-based; conditions: in vivo, 672 h
[5] = Cmax in Sprague-Dawley rat at 10 mg/kg administered via oral gavage by LC-MS analysis; format: ADME, organism-based; set-up: dose 10 mg/kg, route oral; conditions: in vivo
[6] = system: Rattus norvegicus; assay: Antidiabetic activity in Zucker rat sub-chronic fa/fa prediabetic model assessed as blood glucose AUC (0 to 120 min) at 50 mg/kg, po qd for 31 days measured on day 29 post dose by OGTT (reference value: 41471 +/- 2451 mg.min/dL); format: functional
[7] = system: Rattus norvegicus; assay: Effect on HMGCS1 gene expression in epididymal white adipose tissue of Zucker rat sub-chronic fa/fa prediabetic model at 10 mg/kg, po qd for 15 days by microarray analysis relative to control; format: functional
[8] = system: Rattus norvegicus; assay: Effect on CPT1A gene expression in epididymal white adipose tissue of Zucker rat sub-chronic fa/fa prediabetic model at 10 mg/kg, po qd for 15 days by microarray analysis relative to control; format: functional
[9] = system: Rattus norvegicus; assay: Antidiabetic activity in Zucker rat sub-chronic fa/fa prediabetic model assessed as blood glucose AUC (0 to 120 min) at 3 mg/kg, po qd for 31 days measured on day 29 post dose by OGTT (reference value: 41471 +/- 2451 mg.min/dL); format: functional
[10] = system: Rattus norvegicus; assay: Toxicity in Zucker rat sub-chronic fa/fa prediabetic model assessed as serum ALT level at 3 mg/kg, po qd for 31 days measured on day 32 (reference value: 151 +/- 23 U/L); format: organism-based; conditions: in vivo, 744 h
[11] = system: Rattus norvegicus; assay: Effect on HSP90B1 gene expression in epididymal white adipose tissue of Zucker rat sub-chronic fa/fa prediabetic model at 10 mg/kg, po qd for 15 days by microarray analysis relative to control; format: functional
[12] = system: Rattus norvegicus; assay: Effect on NFKB1 gene expression in epididymal white adipose tissue of Zucker rat sub-chronic fa/fa prediabetic model at 10 mg/kg, po qd for 15 days by microarray analysis relative to control; format: functional
[13] = molecular target: Peroxisome proliferator-activated receptor gamma (Homo sapiens, UniProt P37231); assay: Inhibition of fluormone PPARgamma Green binding to recombinant N-terminal GST-tagged human PPARgamma LBD by fluorescence polarization assay
[14] = molecular target: Oxysterols receptor LXR-alpha (Homo sapiens, UniProt Q13133); assay: Agonist activity at recombinant GST-tagged human LXRalpha LBD assessed as fluorescein-labeled coactivator peptide recruitment preincubated with enzyme followed by coactivator addition by LanthaScreen TR-FRET assay
[15] = system: Rattus norvegicus; assay: Toxicity in […] chronic ob/ob model assessed as serum creatinine level at 3 mg/kg, po qd for 31 days measured on day 32 (reference value: 0.55 +/- 0.018 mg/dl); format: organism-based; conditions: in vivo, 744 h
[16] = system: Rattus norvegicus; assay: Toxicity in Zucker rat sub-chronic fa/fa prediabetic model assessed as liver weight at 3 mg/kg, po qd for 31 days measured on day 32 (reference value: 28 +/- 1.6 g); format: organism-based; conditions: in vivo, 744 h
[17] = system: Rattus norvegicus; assay: Effect on HADHB gene expression in epididymal white adipose tissue of Zucker rat sub-chronic fa/fa prediabetic model at 10 mg/kg, po qd for 15 days by microarray analysis relative to control; format: functional
[18] = system: Rattus norvegicus; assay: Toxicity in Zucker rat sub-chronic fa/fa prediabetic model assessed as serum ALT level at 1 mg/kg, po qd for 31 days measured on day 32 (reference value: 151 +/- 23 U/L); format: organism-based; conditions: in vivo, 744 h
[19] = system: Rattus norvegicus; assay: Effect on MLYCD gene expression in epididymal white adipose tissue of Zucker rat sub-chronic fa/fa prediabetic model at 10 mg/kg, po qd for 15 days by microarray analysis relative to control; format: functional
[20] = molecular target: Retinoic acid receptor RXR-beta (Homo sapiens, UniProt P28702); assay: Antagonist activity at recombinant GST-tagged human RXRbeta LBD assessed as inhibition of all-trans-retinoic acid-induced fluorescein-labeled coactivator peptide recruitment preincubated with enzyme followed by coactivator addition by LanthaScreen TR-FRET assay
[21] = system: Rattus norvegicus; assay: Toxicity in Zucker rat sub-chronic fa/fa prediabetic model assessed as triglyceride level per gram liver at 3 mg/kg, po qd for 31 days measured on day 32 (reference value: 163.4 +/- 8.3 mg); format: organism-based; conditions: in vivo, 744 h
[22] = system: Rattus norvegicus; assay: Decrease in fed plasma insulin level in Zucker rat sub-chronic fa/fa prediabetic model assessed as change in plasma insulin level at 10 mg/kg, po qd for 4 days measured on day 5 relative to control; format: functional; set-up: scale not given: the % may be the effect or the level left
[23] = system: Rattus norvegicus; assay: Toxicity in Zucker rat sub-chronic fa/fa prediabetic model assessed as change in body weight at 3 mg/kg, po qd for 29 days measured on day 1 to 29 during compound dosing (reference value: 140 +/- 7 g); format: organism-based; conditions: in vivo, 696 h
[24] = system: Rattus norvegicus; assay: Effect on HSD17B4 gene expression in epididymal white adipose tissue of Zucker rat sub-chronic fa/fa prediabetic model at 10 mg/kg, po qd for 15 days by microarray analysis relative to control; format: functional
[25] = system: Rattus norvegicus; assay: Effect on MED24 gene expression in epididymal white adipose tissue of Zucker rat sub-chronic fa/fa prediabetic model at 10 mg/kg, po qd for 15 days by microarray analysis relative to control; format: functional
[26] = Cmax in […] chronic ob/ob model at 50 mg/kg, po qd for 28 days measured on day 28 post last dose; format: ADME, organism-based; set-up: dose 50 mg/kg, route oral; conditions: in vivo
[27] = system: Rattus norvegicus; assay: Antidiabetic activity in po dosed Zucker rat sub-chronic fa/fa prediabetic model assessed as reduction in blood glucose AUC (0 to 120 min) once daily for 31 days measured on day 29 post dose by OGTT; format: functional, organism-based
[28] = system: Rattus norvegicus; assay: Toxicity in Zucker rat sub-chronic fa/fa prediabetic model assessed as serum triglyceride level at 50 mg/kg, po qd for 31 days measured on day 32 (reference value: 1382 +/- 268 mg/dl); format: organism-based; conditions: in vivo, 744 h
[29] = system: Rattus norvegicus; assay: Effect on Ckmt1 gene expression in epididymal white adipose tissue of Zucker rat sub-chronic fa/fa prediabetic model at 10 mg/kg, po qd for 15 days by microarray analysis relative to control; format: functional
[30] = system: Rattus norvegicus; assay: Toxicity in […] model assessed as serum AST level at 3 mg/kg, po qd for 31 days measured on day 32 (reference value: 180 +/- 26 U/L); format: organism-based; conditions: in vivo, 744 h
[31] = system: Rattus norvegicus; assay: Toxicity in […] model assessed as serum AST level at 50 mg/kg, po qd for 31 days measured on day 32 (reference value: 180 +/- 26 U/L); format: organism-based; conditions: in vivo, 744 h

Sequence of Retinoic acid receptor RXR-beta (P28702 whole entry, the tested form may be a part): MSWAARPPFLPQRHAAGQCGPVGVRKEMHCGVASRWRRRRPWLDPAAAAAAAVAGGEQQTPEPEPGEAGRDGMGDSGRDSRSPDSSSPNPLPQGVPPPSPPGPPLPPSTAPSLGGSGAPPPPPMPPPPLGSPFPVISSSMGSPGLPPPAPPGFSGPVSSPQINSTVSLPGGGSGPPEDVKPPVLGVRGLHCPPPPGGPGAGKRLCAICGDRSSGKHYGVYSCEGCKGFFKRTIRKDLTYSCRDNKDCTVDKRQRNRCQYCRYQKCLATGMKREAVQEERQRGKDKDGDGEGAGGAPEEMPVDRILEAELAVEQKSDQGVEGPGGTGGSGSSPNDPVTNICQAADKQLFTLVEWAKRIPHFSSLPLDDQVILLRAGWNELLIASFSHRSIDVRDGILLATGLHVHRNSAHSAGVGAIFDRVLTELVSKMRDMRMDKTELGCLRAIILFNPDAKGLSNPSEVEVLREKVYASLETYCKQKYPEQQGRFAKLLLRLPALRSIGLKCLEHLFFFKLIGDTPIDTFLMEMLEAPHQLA
Sequence of Peroxisome proliferator-activated receptor gamma (P37231 whole entry, the tested form may be a part): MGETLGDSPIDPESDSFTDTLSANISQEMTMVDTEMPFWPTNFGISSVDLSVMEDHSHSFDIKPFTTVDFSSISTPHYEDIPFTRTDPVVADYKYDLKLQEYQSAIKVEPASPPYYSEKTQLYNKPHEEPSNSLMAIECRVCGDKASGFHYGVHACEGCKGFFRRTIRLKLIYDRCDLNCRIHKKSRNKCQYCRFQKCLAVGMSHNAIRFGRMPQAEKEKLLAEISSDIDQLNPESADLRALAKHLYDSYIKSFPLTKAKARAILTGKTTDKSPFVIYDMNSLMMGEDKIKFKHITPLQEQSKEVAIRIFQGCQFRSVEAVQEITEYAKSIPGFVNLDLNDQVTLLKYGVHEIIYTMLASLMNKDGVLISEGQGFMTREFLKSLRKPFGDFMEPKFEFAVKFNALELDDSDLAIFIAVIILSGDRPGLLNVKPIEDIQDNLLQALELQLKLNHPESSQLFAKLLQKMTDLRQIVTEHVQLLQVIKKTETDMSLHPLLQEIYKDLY
Sequence of Oxysterols receptor LXR-alpha (Q13133 whole entry, the tested form may be a part): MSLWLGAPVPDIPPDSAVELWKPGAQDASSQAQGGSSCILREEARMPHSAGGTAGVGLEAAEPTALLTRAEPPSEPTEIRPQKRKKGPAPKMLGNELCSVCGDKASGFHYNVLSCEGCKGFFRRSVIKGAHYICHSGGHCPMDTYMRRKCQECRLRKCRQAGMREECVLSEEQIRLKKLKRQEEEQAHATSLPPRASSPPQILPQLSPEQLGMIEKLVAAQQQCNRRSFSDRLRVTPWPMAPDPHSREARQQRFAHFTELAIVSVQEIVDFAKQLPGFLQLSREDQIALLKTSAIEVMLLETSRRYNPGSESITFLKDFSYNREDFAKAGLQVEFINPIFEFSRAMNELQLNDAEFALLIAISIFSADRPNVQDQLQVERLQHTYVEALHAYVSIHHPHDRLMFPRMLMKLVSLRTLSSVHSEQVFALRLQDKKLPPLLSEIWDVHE

With `CN1CC[C@@H](N2C(=O)S/C(=C\c3ccc4c(cnn4Cc4ccc(Cl)cc4C(F)(F)F)c3)C2=O)[C@H](F)C1` the “fold change (FC)” value [1] was 1.239, the Activity [2] was 23.9 mg/dL and the Activity [3] was 111 U/L. The Activity [4] was 152.4 g, the Cmax [5] was 683 ng/mL and the Activity [6] was 16701 mg·min/dL. The “fold change (FC)” value [7] was -1.387, the “fold change (FC)” value [8] was -1.277 and the Activity [9] was 26306 mg·min/dL. The Activity [10] was 117 U/L, the “fold change (FC)” value [11] was -1.258 and the “fold change (FC)” value [12] was -1.254. For the same compound, the IC50 [13] was > 10 µM, the EC50 [14] was > 10 µM and the Activity [15] was 0.5 mg/dL. The Activity [16] was 20.6 g, the “fold change (FC)” value [17] was 1.349 and the Activity [18] was 159 U/L. For the same compound, the “fold change (FC)” value [19] was 1.608, the IC50 [20] was > 10 µM and the Activity [21] was 124.7 mg. For the same compound, the Activity [22] was -67%, the Activity [23] was 160 g and the “fold change (FC)” value [24] was 1.226. The “fold change (FC)” value [25] was -1.216, the Cmax [26] was 1680 ng/mL and the Activity [27] was “Dose-dependent effect”. For the same compound, the Activity [28] was 198 mg/dL, the “fold change (FC)” value [29] was -1.374 and the Activity [30] was 211 U/L. For the same compound, the Activity [31] was 199 U/L.

Source: ChEMBL document CHEMBL4130359, “Indazole-based ligands for estrogen-related receptor α as potential anti-diabetic agents” (Eur J Med Chem, 2017)
